According to US9920295B2, “Bioreactor for isolation of rare cells and methods of use” (The Trustees of the University of Pennsylvania, priority 2012, dated 2018):

Tests used:
[1] = tested on: human-CD41+ platelets in NSG mice; test: In vivo human platelet generation after intratibial transplantation into NSG mice; set-up: species or system mouse
Description: Eight- to 10-wk-old nonobese diabetic (NOD)/SCID/IL-2Rγ−/− (NSG) mice were obtained and maintained in-house at the Penn Xenograft Core Facility. Before transplantation (˜24 h), mice received a sublethal dose of 320 cGy total body irradiation. Cultured human CD34^+-derived cells (0.5−3×10^5 uncultured BM CD34^+ equivalent) with or without drug treatment was suspended in 20 μL PBS and injected directly into the tibia. Peripheral blood (PB) was then obtained from the transplanted mice via retroorbital bleeding and human platelet quantification was done at indicated times. To calculate human platelet in NSG circulation, the total platelet concentration count was done by Hemavet (Drew Scientific), and 2 μL of PB per staining sample was washed in the presence of PGE1 inhibitor (Sigma) and resuspended in PBS. Cells were incubated with mouse Fc-blocker (BD Biosciences) for 5 min, followed by addition of mouse anti-human CD41-FITC and rat anti-mouse CD41-PE antibodies (eBioscience). After 30 min incubation at room temperature, cells were fixed by addition of 0.5% paraformaldehyde and analyzed by flow cytometry within 2 h. Platelets were gated on based on forward and side scatters, and at least 50,000 events were acquired. Human platelet concentration was obtained by multiplying the total platelet count by the percentage of human CD41-FITC of the total CD41^+ platelets (mouse plus human). Microscopic determination and isotype control with mixing known number of human platelets indicate the threshold detection limit of 0.001%. The total human platelet number in each transplanted NSG mouse was estimated by assuming that the average total mouse blood is ˜1.5 mL (Riches et al., 1973, J Physiol, 228:279-284). All animal experiments were performed in accordance with institutional guidelines approved by the ethical committee from the University of Pennsylvania.

MKs = test: In vitro platelet generation from MKs; format: cell-based, human; details: 20 μM for 3 d, then 3 d of no drug
Description: For platelet-activation assays, platelet-sided fraction isolated from either MK culture or NSG blood was resuspended in Tyrode's buffer supplemented with Mg^2+ and Ca^2+, and incubated with indicated agonists for 15 min at 37° C., followed by staining with FITC-conjugated anti-human P-selectin or PAC-1 antibody (BD Bioscience), APC-conjugated anti-human CD41, and in the case of xenograft samples, PE-conjugated anti-mouse CD41 for 15 min at room temperature, followed by fixation with 1.5% paraformaldehyde. Antibody-stained samples were then analyzed by flow cytometry. Platelet number was evaluated by mixing each sample with a defined number (˜10,000 beads per sample) of APC-conjugated beads (BD Bioscience). The number of platelets per sample was evaluated by: number of CD41^+ events/number of APC-bead events multiplied by total known number of APC-bead added per sample.
Transplantation of uncultured human cord-blood CD34^+ cells in immuno-deficient nonobese diabetic (NOD)/SCID mice has been shown previously to yield sustained generation of human platelets (Salles et al., 2009, Blood, 114:5044-5051), but the intravenous delivery route used to date requires a large number of cells for homing and engraftment. Intrabone marrow transplantation was instead used here to more rapidly expose injected cells to the marrow microenvironment per FIG. 1A. […]

[2] = tested on: CD34+-derived cells (HSC, MPP, CPP); test: HSC/P subpopulation analysis by flow cytometry; format: cell-based, human
Description: Freshly purified bone marrow-derived human CD34^+ cells were obtained from either the Penn Xenograft Core Facility or AllCells (Emeryville, Calif.). Cells from at least 20 different donors were used in this study. Purity of the samples (>98%) was confirmed by flow cytometry with monoclonal antibody against human CD34. All experiments were performed in HSC expansion media (StemLine, Sigma) supplemented with 1× antibiotics, 20% BIT 9500 Serum Substitute (StemCell Technologies), 2 mM […] (Gibco) and the following human recombinant cytokines: SCF (100 ng/ml) and Tpo (100 ng/ml). In some occasions, the media was also supplemented by G-CSF (100 ng/ml), epidermal growth factor (EGF, 100 ng/ml), transforming growth factor beta 1 (TGF-beta1, 100 ng/ml), erythropoietin (EPO, 1 U/ml) and interleukin-3 (IL-3, 10 ng/ml). All cytokines were purchased from R&D Systems. After cells were cultured for 4 days, they were treated with different doses of cellular contractility inhibitors, including (±)-Blebbistatin (Bleb) (EMD Biosciences) and/or CH-223191 (Sigma) for indicated durations of up to 3 days. Cells were cultured at 37° C. in 5% CO2.
Surface marker analysis for HSC/Ps was done on either a LSR II flow cytometer or FACSCalibur (Becton Dickinson). […] Cells isolated from the bone marrow stained for 1 hr with APC anti-mouse CD47 (miap301, AbD Serotec), FITC anti-human CD47 (BD Biosciences), and PE anti-human CD11b, PE anti-human CD19 (both from BD Biosciences), or PE anti-human Glycophorin A (Invitrogen). Plts and RBCs were analyzed by staining with PE anti-mouse CD41 (eBioscience) and FITC anti-human CD41 (eBioscience) for 20 min, followed by analysis on FACSCalibur on log forward and side scatter scales.

CD34+-derived cells = test: Apoptosis by cleaved caspase-3 intracellular flow cytometry and Annexin-V; format: cell-based, human; details: cleaved caspase-3 and Annexin-V+
Description: (§1) Cells were fixed with 4% paraformaldehyde in PBS for 10 min, washed with PBS and resuspended in 0.1% saponin in HBSS (staining medium). The samples were then stained with antibodies against cytoplasmic antigens, including NMM-IIA (Sigma), NMM-IIB, phospho-NMM-IIA and caspase-3 (all from Cell Signaling Technology) for 30 min at room temperature. In some cases, cells were concurrently stained with PE anti-CD34 or anti-human CD38 for subpopulation analysis. Cells were then washed and stained with anti-rabbit or mouse secondary antibodies conjugated with Alexa 647 (Invitrogen) for 30 min, followed by analysis on FACSCalibur.

NMM-IIA pS1943 = test: pS1943 of NMM-IIA by phospho-specific flow cytometry; format: cell-based, human; details: under cytokine stimulation (SCF and Tpo)
Description: as §1

IC50 ([2]; 2N cells, n≥4 donors, read-out: CPP and MPP number IC50): ~10.5 µM
SMILES: Cc1ccc2c(c1)C(=O)C1(O)CCN(c3ccccc3)C1=N2 (racemic) [blebbistatin, (±)-blebbistatin]
human plts per transplanted CD41+ cell vs untreated ([1]; Phase-I and Phase-II of circulation): about 4 fold
plt half-life ([1]; Phase-II decay, regardless of drug treatment): ~37 h
in vivo human platelets per transplanted CD41+ cell vs untreated ([1]; cells treated ex vivo 3 d, day 3 posttransplant): about fourfold
in vitro platelets per CD41+ cell vs untreated MKs (MKs): 2.5 fold
change in primitive HSC cell number [2]: < 50%
enrichment for LT-HSCs ([2]; 20 μM, 2N cells): 15.6±4.1 fold
CPP depletion ([2]; 3-day treatment): 31 fold
CPP depletion, range ([2]; 3-day treatment): 15-48 fold
HSC enrichment, average ([2]; 3-day treatment): 16 fold
HSC enrichment, range ([2]; 3-day treatment): 5-24 fold
MPP depletion ([2]; 3-day treatment): 1.8 fold
MPP depletion, range ([2]; 3-day treatment): 1.3-2.3 fold
HSC number, mean ([2]; normalized to initial cell input): 646±77
HSC-to-MPP ratio vs untreated cells ([2]; on plastic): ~4 fold
Ki ([2]; read-out: inhibition constant Ki, MPPs and CPPs): ~10.5 µM
increase in apoptosis (CD34+-derived cells): about 2 fold
effect on pS1943 level (NMM-IIA pS1943): inhibits the reduction of pS1943
